Results taken from patent US6642392B1 (priority 1997, dated 2003).
Like-named read-outs stand apart in the source and are kept apart here.

Columns and labels:
Type in all cases: in vivo
[1] = test system: Puccinia recondita; assay: Test B: wheat leaf rust, preventive spray on wheat seedlings; details: for Test B disease control rating: wheat leaf rust; for Test B disease control rating (100 = 100% disease control, 0 = no disease control): wheat seedlings sprayed to run-off, inoculated the following day, rating relative to controls, unmarked compounds (standard test rate)
Method: (§1) The resulting test suspensions were then used in the following tests. […]
(§2) The test suspension was sprayed to the point of run-off on wheat seedlings. The following day the seedlings were inoculated with a spore suspension of Puccinia recondita (the causal agent of wheat leaf rust) and incubated in a saturated atmosphere at 20° C. for 24 h, and then moved to a growth chamber at 20° C. for 6 days, after which disease ratings were made.
(§3) Results for Tests A-E are given in Table A. In the table, a rating of 100 indicates 100% disease control and a rating of 0 indicates no disease control (relative to the controls). A dash (-) indicates no test results. ND indicates disease control not determined due to phytotoxicity.

[2] = test system: Botrytis cinerea; assay: Test E: gray mold, preventive spray on cucumber seedlings; details: for Test E disease control rating: gray mold on cucumber; for Test E disease control rating (100 = 100% disease control, 0 = no disease control): cucumber seedlings sprayed to run-off, inoculated the following day, rating relative to controls, unmarked compounds (standard test rate)
Method: The resulting test suspensions were then used in the following tests. Spraying these 200 ppm test suspensions to the point of run-off on the test plants is the equivalent of a rate of 500 g/ha.
as §2, with “cucumber” for “wheat”, “Botrytis cinerea” for “Puccinia recondita”, “gray mold on many crops)” for “wheat leaf rust)”, “48” for “24”, “and” for “and then”, “5” for “6”
as §3

[3] = test system: Eiysiphe graminis f. sp. tritici; assay: Test A: wheat powdery mildew, preventive spray on wheat seedlings; details: for Test A disease control rating: wheat powdery mildew; for Test A disease control rating (100 = 100% disease control, 0 = no disease control): wheat seedlings sprayed to run-off, inoculated the following day, rating relative to controls, unmarked compounds (standard test rate)
Method: as §1
The test suspension was sprayed to the point of run-off on wheat seedlings. The following day the seedlings were inoculated with a spore dust of Eiysiphe graminis f. sp. tritici, (the causal agent of wheat powdery mildew) and incubated in a growth chamber at 20° C. for 7 days, after which disease ratings were made.
as §3

[4] = test system: Phytophthora infestans; details: for Test D disease control rating: tomato late blight; for Test D disease control rating (100 = 100% disease control, 0 = no disease control): tomato seedlings sprayed to run-off, inoculated the following day, rating relative to controls, unmarked compounds (standard test rate)
[5] = test system: Pyricularia oryzae; details: for Test C disease control rating: rice blast; for Test C disease control rating (100 = 100% disease control, 0 = no disease control): rice seedlings sprayed to run-off, inoculated the following day, rating relative to controls, unmarked compounds (standard test rate)
[6] = 100 = 100% disease control, 0 = no control, unmarked entries (standard test concentration)
[7] = 100 = 100% disease control, 0 = no control relative to controls, unmarked entries (standard test concentration)

| SMILES | Test B disease control rating [1, 6] [%] | Test E disease control rating [2, 6] [%] | Test A disease control rating [3, 7] [%] | Test D disease control rating [4, 6] [%] | Test C disease control rating [5, 6] [%] | Test B disease control rating ([1]; tested at 40 ppm) [%] | Test E disease control rating ([2]; tested at 40 ppm) [%] | Test A disease control rating ([3]; tested at 40 ppm) [%] | Test D disease control rating ([4]; tested at 40 ppm) [%] | Test C disease control rating ([5]; tested at 40 ppm) [%] | other results |
| --- | --- | --- | --- | --- | --- | --- | --- | --- | --- | --- | --- |
| C[C@H](COc1cc(Cl)cc(Cl)c1)NC(=O)C(C#N)C(C)(C)C (single isomer, unassigned) [35b] | 0 | 0 | 37 | 0 | 91 | – | – | – | – | – | – |
| CC(COc1ccccc1F)NC(=O)C(C#N)C(C)C(C)(C)C (mixture of isomers) [compound 57] | – | – | – | – | – | 0 | 0 | 91 | 0 | 85 | – |
| C[C@H](COc1ccc(Cl)c(Cl)c1)NC(=O)C(C#N)C(C)(C)C (single isomer, unassigned) [181a] | 0 | 69 | 0 | 56 | 86 | – | – | – | – | – | – |
| CC(COc1c(F)ccc(F)c1F)NC(=O)C(C#N)C(C)(C)C (mixture of isomers) [compound 186] | 0 | 45 | 0 | 0 | 100 | – | – | – | – | – | – |
| CC(COc1cccc(F)c1)NC(=O)C(C#N)C(C)(C)C (single isomer, unassigned) [3b] | 0 | 0 | 0 | 32 | 86 | – | – | – | – | – | – |
| CC(COc1cc(F)ccc1OC(F)F)NC(=O)C(C#N)C(C)(C)C (mixture of isomers) [compound 292] | – | – | – | – | – | – | – | – | – | – | Test B disease control rating (100 = 100% disease control, 0 = no disease control) [1]: 0%; Test E disease control rating (100 = 100% disease control, 0 = no disease control) [2]: 0%; Test A disease control rating (100 = 100% disease control, 0 = no disease control) [3]: 0%; Test D disease control rating (100 = 100% disease control, 0 = no disease control) [4]: 46%; Test C disease control rating (100 = 100% disease control, 0 = no disease control) [5]: 99% |
| CCc1ccccc1OCC(C)NC(=O)C(C#N)C(C)(C)C (mixture of isomers) [20b] | 0 | 0 | 0 | 0 | 100 | – | – | – | – | – | – |
| CCC1(C(=O)NC(C)COc2cc(C)ccc2Cl)C(C)C1(Cl)Cl (stereo not drawn) [compound 127] | – | – | – | – | – | 0 | 0 | 0 | 19 | 94 | – |
| CC(COc1cc(F)ccc1Cl)NC(=O)C(C#N)C(C)(C)C=CF (mixture of isomers) [compound 222] | – | – | – | – | – | – | – | – | – | – | Test B disease control rating (100 = 100% disease control, 0 = no disease control) [1]: 28%; Test E disease control rating (100 = 100% disease control, 0 = no disease control) [2]: 0%; Test A disease control rating (100 = 100% disease control, 0 = no disease control) [3]: 62%; Test D disease control rating (100 = 100% disease control, 0 = no disease control) [4]: 41%; Test C disease control rating (100 = 100% disease control, 0 = no disease control) [5]: 100% |
| CCC1(C(=O)NC(C)COc2ccc(Cl)cc2F)C(C)C1(Cl)Cl (stereo not drawn) [compound 120] | – | – | – | – | – | 0 | 0 | 29 | 19 | 52 | – |
| CCc1cccc(OCC(C)NC(=O)C2(CC)C(C)C2(Cl)Cl)c1 (stereo not drawn) [compound 240] | – | – | – | – | – | – | – | – | – | – | Test B disease control rating (100 = 100% disease control, 0 = no disease control) [1]: 0%; Test E disease control rating (100 = 100% disease control, 0 = no disease control) [2]: 0%; Test A disease control rating (100 = 100% disease control, 0 = no disease control) [3]: 63%; Test D disease control rating (100 = 100% disease control, 0 = no disease control) [4]: 96%; Test C disease control rating (100 = 100% disease control, 0 = no disease control) [5]: 94% |
| CCC1(C(=O)NC(C)COc2ccccc2Br)C(C)C1(Cl)Cl (mixture of isomers) [84a] | – | – | – | – | – | 0 | 0 | 29 | 20 | 0 | – |
